The target of this series is ATP-dependent translocase ABCB1 (Homo sapiens, UniProt P08183). The series is described as follows: TP_TRANSPORTER: inhibition of Azidopine photoaffinity labelling (Azidopine: 0.4 uM, KRN5500: 400 uM) in membrane fraction from MDR1-expressing LLC-PK1 cell. The series is classed as functional, cell membranes. Particulars: pig, llc-pk1, 400 µM.
ATP-dependent translocase ABCB1, sequence (P08183 whole entry): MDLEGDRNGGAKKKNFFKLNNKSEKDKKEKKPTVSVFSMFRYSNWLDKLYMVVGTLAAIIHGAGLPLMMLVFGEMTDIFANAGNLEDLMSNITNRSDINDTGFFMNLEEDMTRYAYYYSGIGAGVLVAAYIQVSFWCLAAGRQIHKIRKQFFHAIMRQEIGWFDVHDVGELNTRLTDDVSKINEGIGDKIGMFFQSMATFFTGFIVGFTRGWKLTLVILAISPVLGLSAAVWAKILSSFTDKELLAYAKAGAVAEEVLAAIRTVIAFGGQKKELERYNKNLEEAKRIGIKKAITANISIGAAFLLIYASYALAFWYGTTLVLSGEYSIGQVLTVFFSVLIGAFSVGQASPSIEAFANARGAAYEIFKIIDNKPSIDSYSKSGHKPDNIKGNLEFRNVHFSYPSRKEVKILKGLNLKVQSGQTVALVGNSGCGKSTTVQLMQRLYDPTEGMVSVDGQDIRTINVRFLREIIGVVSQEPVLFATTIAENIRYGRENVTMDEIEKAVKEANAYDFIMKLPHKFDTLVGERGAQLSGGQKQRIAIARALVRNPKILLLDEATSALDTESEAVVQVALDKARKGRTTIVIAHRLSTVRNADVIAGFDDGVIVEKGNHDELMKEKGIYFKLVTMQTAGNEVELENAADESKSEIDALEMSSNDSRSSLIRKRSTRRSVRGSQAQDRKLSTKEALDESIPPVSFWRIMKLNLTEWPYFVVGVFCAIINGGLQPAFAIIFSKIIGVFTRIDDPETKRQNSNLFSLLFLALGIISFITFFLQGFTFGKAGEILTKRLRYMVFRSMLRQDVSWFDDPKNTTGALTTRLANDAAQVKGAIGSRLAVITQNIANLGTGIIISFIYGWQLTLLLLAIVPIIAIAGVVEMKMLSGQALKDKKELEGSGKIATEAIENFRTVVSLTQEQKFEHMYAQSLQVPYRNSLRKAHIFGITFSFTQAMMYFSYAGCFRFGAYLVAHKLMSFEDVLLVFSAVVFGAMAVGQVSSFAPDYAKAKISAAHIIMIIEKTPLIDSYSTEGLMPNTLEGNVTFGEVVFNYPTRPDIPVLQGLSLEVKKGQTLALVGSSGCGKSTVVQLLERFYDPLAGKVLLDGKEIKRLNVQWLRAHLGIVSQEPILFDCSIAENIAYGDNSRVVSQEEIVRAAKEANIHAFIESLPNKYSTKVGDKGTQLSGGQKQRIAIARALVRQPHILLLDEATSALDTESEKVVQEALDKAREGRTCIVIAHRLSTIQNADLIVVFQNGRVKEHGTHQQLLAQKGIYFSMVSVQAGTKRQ

With `CCCCCCCCC/C=C/C=C/C(=O)NCC(=O)N[C@@H]1[C@@H](O)[C@@H](O)[C@@H](Nc2ncnc3[nH]cnc23)O[C@H]1[C@@H](O)CO`, the Activity entry is “inhibitor [+]”.

The values are drawn from ChEMBL document CHEMBL2074431, “The novel anticancer drug KRN5500 interacts with, but is hardly transported by, human P-glycoprotein” (Jpn J Cancer Res, 2000).
